Source: patent US20100298141A1, “SUBSTITUTED PYRIDINE N-OXIDE HERBICIDES” (E. I. DU PONT DE NEMOURS AND COMPANY, priority 2007, published 2010)

Key:
[1] = test system: barnyardgrass; assay: Test A pre-/postemergence greenhouse test; assay type: in vivo, Echinochloa crus-galli; details: for Barnyardgrass plant response rating: 0 to 100 scale; for Plant response rating, Barnyardgrass: 0 to 100 scale where 0 is no effect and 100 is complete control
How it was run: (§1)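 Planting was into mixed loam soil and sand; preemergence treatment followed as a directed soil spray. Concurrently, emerged plants (one- to two-leaf, 2–10 cm) received postemergence applications of identically formulated compound (non-phytotoxic solvent, surfactant). After approximately ten days under greenhouse conditions, injury was judged by eye against untreated plants.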

[2] = test system: crabgrass; assay: Test A pre-/postemergence greenhouse test; assay type: in vivo, Digitaria sanguinalis; details: for Crabgrass, Large plant response rating: 0 to 100 scale; for Plant response rating, Crabgrass, Large: 0 to 100 scale where 0 is no effect and 100 is complete control
How it was run: as §1

[3] = test system: umbrella sedge; assay: Test C flooded paddy test; assay type: in vivo, Cyperus difformis; details: Flood
Source text: (§2) At time of treatment, test pots were flooded to 3 cm above the soil surface, treated by application of test compounds directly to the paddy water, and then maintained at that water depth for the duration of the test. Treated plants and controls were maintained in a greenhouse for 13 to 15 days, after which time all species were compared to controls and visually evaluated. […] A dash (-) response means no test result.

[4] = test system: duck salad; assay: Test C flooded paddy test; assay type: in vivo, Heteranthera limosa; details: Flood
Source text: as §2

[5] = test system: corn; assay: Test A pre-/postemergence greenhouse test; assay type: in vivo, Zea mays; details: for Corn plant response rating: 0 to 100 scale; for Plant response rating, Corn: 0 to 100 scale where 0 is no effect and 100 is complete control
How it was run: as §1

[6] = test system: barnyardgrass; assay: Test C flooded paddy test; assay type: in vivo, Echinochloa crus-galli; details: Flood
Source text: as §2

[7] = test system: giant foxtail; assay: Test A pre-/postemergence greenhouse test; assay type: in vivo, Setaria faberi; details: for Foxtail, Giant plant response rating: 0 to 100 scale; for Plant response rating, Foxtail, Giant: 0 to 100 scale where 0 is no effect and 100 is complete control
How it was run: as §1

[8] = test system: wheat; assay: Test A pre-/postemergence greenhouse test; assay type: in vivo, Triticum aestivum; details: for Wheat plant response rating: 0 to 100 scale; for Plant response rating, Wheat: 0 to 100 scale where 0 is no effect and 100 is complete control
How it was run: as §1

[9] = test system: rice; assay: Test C flooded paddy test; assay type: in vivo, Oryza sativa; details: Flood
Source text: as §2

[10] = test system: redroot pigweed; assay: Test A pre-/postemergence greenhouse test; assay type: in vivo, Amaranthus retroflexus; details: for Pigweed plant response rating: 0 to 100 scale; for Plant response rating, Pigweed: 0 to 100 scale where 0 is no effect and 100 is complete control
How it was run: as §1

[11] = test system: velvetleaf; assay: Test A pre-/postemergence greenhouse test; assay type: in vivo, Abutilon theophrasti; details: for Velvetleaf plant response rating: 0 to 100 scale; for Plant response rating, Velvetleaf: 0 to 100 scale where 0 is no effect and 100 is complete control
How it was run: as §1

[12] = test system: morningglory; assay: Test A pre-/postemergence greenhouse test; assay type: in vivo, Ipomoea spp.; details: for Morningglory plant response rating: 0 to 100 scale; for Plant response rating, Morningglory: 0 to 100 scale where 0 is no effect and 100 is complete control
How it was run: as §1

[13] = Postemergence, 125 g ai/ha, 0 is no effect, 100 is complete control
[14] = Postemergence, 500 g ai/ha, 0 is no effect, 100 is complete control
[15] = Preemergence, 125 g ai/ha, 0 no effect, 100 complete control
[16] = 31 g ai/ha, scale 0 to 100 (0 no effect, 100 complete control)
[17] = 62 g ai/ha, scale 0 to 100, 0 no effect, 100 complete control, 13 to 15 days
[18] = 125 g ai/ha, scale 0 to 100, 0 no effect, 100 complete control, 13 to 15 days
[19] = 250 g ai/ha, scale 0 to 100, 0 no effect, 100 complete control, 13 to 15 days
[20] = 250 g ai/ha, scale 0 to 100 (0 no effect, 100 complete control)

With `CC(c1c(C(F)(F)F)nn(C)c1OC(F)F)S(=O)(=O)c1ccc(Br)c[n+]1[O-]` (racemic) [Compound 23] the “Barnyardgrass plant response rating” value [1, 13] was 0, the “Barnyardgrass plant response rating” value [1, 14] was 0 and the “Barnyardgrass plant response rating” value [1, 15] was 40. For the same compound, the “Plant response rating, Barnyardgrass” value ([1]; Preemergence, 500 g ai/ha) was 90, the “Crabgrass, Large plant response rating” value [2, 13] was 40 and the “Crabgrass, Large plant response rating” value [2, 14] was 50. For the same compound, the “Crabgrass, Large plant response rating” value [2, 15] was 60, the “Plant response rating, Crabgrass, Large” value ([2]; Preemergence, 500 g ai/ha) was 90 and the “Plant response rating, Sedge, Umbrella” value [3, 16] was 0. For the same compound, the “Plant response rating, Sedge, Umbrella” value [3, 17] was 55, the “Plant response rating, Sedge, Umbrella” value [3, 18] was 75 and the “Plant response rating, Sedge, Umbrella” value [3, 19] was 75. For the same compound, the “Plant response rating, Ducksalad” value [4, 16] was 0, the “Plant response rating, Ducksalad” value [4, 17] was 60 and the “Plant response rating, Ducksalad” value [4, 18] was 70. The “Plant response rating, Ducksalad” value [4, 20] was 80, the “Corn plant response rating” value [5, 13] was 0 and the “Corn plant response rating” value [5, 14] was 0. For the same compound, the “Corn plant response rating” value [5, 15] was 0, the “Plant response rating, Corn” value ([5]; Preemergence, 500 g ai/ha) was 0 and the “Plant response rating, Barnyardgrass” value [6, 16] was 0. For the same compound, the “Plant response rating, Barnyardgrass” value [6, 17] was 45, the “Plant response rating, Barnyardgrass” value [6, 18] was 60 and the “Plant response rating, Barnyardgrass” value [6, 20] was 70. For the same compound, the “Foxtail, Giant plant response rating” value [7, 13] was 0, the “Foxtail, Giant plant response rating” value [7, 14] was 40 and the “Foxtail, Giant plant response rating” value [7, 15] was 30. For the same compound, the “Plant response rating, Foxtail, Giant” value ([7]; Preemergence, 500 g ai/ha) was 80, the “Wheat plant response rating” value [8, 13] was 0 and the “Wheat plant response rating” value [8, 14] was 0. The “Wheat plant response rating” value [8, 15] was 0, the “Plant response rating, Wheat” value ([8]; Preemergence, 500 g ai/ha) was 0 and the “Plant response rating, Rice” value [9, 16] was 0. The “Plant response rating, Rice” value [9, 17] was 70, the “Plant response rating, Rice” value [9, 18] was 70 and the “Plant response rating, Rice” value [9, 20] was 70. The “Pigweed plant response rating” value [10, 13] was 0, the “Pigweed plant response rating” value [10, 14] was 50 and the “Pigweed plant response rating” value [10, 15] was 100. For the same compound, the “Plant response rating, Pigweed” value ([10]; Preemergence, 500 g ai/ha) was 100, the “Velvetleaf plant response rating” value [11, 13] was 0 and the “Velvetleaf plant response rating” value [11, 14] was 0. The “Velvetleaf plant response rating” value [11, 15] was 0, the “Plant response rating, Velvetleaf” value ([11]; Preemergence, 500 g ai/ha) was 0 and the “Morningglory plant response rating” value [12, 13] was 0. The “Morningglory plant response rating” value [12, 14] was 0, the “Morningglory plant response rating” value [12, 15] was 0 and the “Plant response rating, Morningglory” value ([12]; Preemergence, 500 g ai/ha) was 0.

For `[O-][n+]1ccccc1[S+]([O-])C(Cl)c1c(C(F)(F)F)nn(CC(F)(F)F)c1Cl` (stereo not drawn) [Compound 45], the “Plant response rating, Barnyardgrass” value ([1]; Postemergence, 125 g ai/ha) was 40, the “Barnyardgrass plant response rating” value [1, 14] was 70 and the “Barnyardgrass plant response rating” value [1, 15] was 0. The “Plant response rating, Barnyardgrass” value ([1]; Preemergence, 500 g ai/ha) was 100, the “Plant response rating, Crabgrass, Large” value ([2]; Postemergence, 125 g ai/ha) was 60 and the “Crabgrass, Large plant response rating” value [2, 14] was 80. The “Crabgrass, Large plant response rating” value [2, 15] was 60, the “Plant response rating, Crabgrass, Large” value ([2]; Preemergence, 500 g ai/ha) was 80 and the “Plant response rating, Sedge, Umbrella” value [3, 19] was 80. For the same compound, the “Plant response rating, Ducksalad” value [4, 17] was 40, the “Plant response rating, Ducksalad” value [4, 19] was 75 and the “Plant response rating, Corn” value ([5]; Postemergence, 125 g ai/ha) was 0. The “Corn plant response rating” value [5, 14] was 0, the “Corn plant response rating” value [5, 15] was 0 and the “Plant response rating, Corn” value ([5]; Preemergence, 500 g ai/ha) was 0. The “Plant response rating, Barnyardgrass” value [6, 17] was 0, the “Plant response rating, Barnyardgrass” value [6, 19] was 20 and the “Plant response rating, Foxtail, Giant” value ([7]; Postemergence, 125 g ai/ha) was 50. The “Foxtail, Giant plant response rating” value [7, 14] was 80, the “Foxtail, Giant plant response rating” value [7, 15] was 70 and the “Plant response rating, Foxtail, Giant” value ([7]; Preemergence, 500 g ai/ha) was 100. The “Plant response rating, Wheat” value ([8]; Postemergence, 125 g ai/ha) was 0, the “Wheat plant response rating” value [8, 14] was 0 and the “Wheat plant response rating” value [8, 15] was 0. The “Plant response rating, Wheat” value ([8]; Preemergence, 500 g ai/ha) was 30, the “Plant response rating, Rice” value [9, 17] was 0 and the “Plant response rating, Rice” value [9, 19] was 25. For the same compound, the “Plant response rating, Pigweed” value ([10]; Postemergence, 125 g ai/ha) was 40, the “Pigweed plant response rating” value [10, 14] was 60 and the “Pigweed plant response rating” value [10, 15] was 50. For the same compound, the “Plant response rating, Pigweed” value ([10]; Preemergence, 500 g ai/ha) was 100, the “Plant response rating, Velvetleaf” value ([11]; Postemergence, 125 g ai/ha) was 30 and the “Velvetleaf plant response rating” value [11, 14] was 40. The “Velvetleaf plant response rating” value [11, 15] was 0, the “Plant response rating, Velvetleaf” value ([11]; Preemergence, 500 g ai/ha) was 50 and the “Plant response rating, Morningglory” value ([12]; Postemergence, 125 g ai/ha) was 0. For the same compound, the “Morningglory plant response rating” value [12, 14] was 40, the “Morningglory plant response rating” value [12, 15] was 50 and the “Plant response rating, Morningglory” value ([12]; Preemergence, 500 g ai/ha) was 60.
